What was measured:
Pseudomonas aeruginosa [1] = assay: Tested for the minimum inhibitory concentration (MIC) against growth of PAM 1032, a strain of Pseudomonas aeruginosa; format: functional
Pseudomonas aeruginosa [2] = assay: Minimum concentration required to reduce (potentiate) the MIC of levofloxacin of Pseudomonas aeruginosa by 8-folds; format: functional

| SMILES | MIC (Pseudomonas aeruginosa [1]) [µg/mL] | MPC8 (Pseudomonas aeruginosa [2]) [µg/mL] |
| --- | --- | --- |
| Cc1ccc(CCN(CCC(=O)Nc2cnc3ccccc3c2)C(=O)[C@H](N)CCCN)cc1.O=C(O)C(F)(F)F.O=C(O)C(F)(F)F | 256 | 5 |
| NCCC[C@@H](N)C(=O)N[C@H](CCc1ccccc1)CSc1ccc(Cl)cc1.O=C(O)C(F)(F)F.O=C(O)C(F)(F)F | 64 | 1.25 |
| NCCC[C@@H](N)C(=O)N[C@H](CCc1ccccc1)C(O)c1nc2cc(Cl)ccc2o1.O=C(O)C(F)(F)F.O=C(O)C(F)(F)F (some centres undefined) | 256 | 5 |
| NCCC[C@@H](N)C(=O)N[C@H](CCc1ccccc1)COc1ccc(Cl)cc1.O=C(O)C(F)(F)F.O=C(O)C(F)(F)F | 128 | 5 |
| Cc1cc2nc(C(O)[C@@H](CCc3ccccc3)NCC(O)[C@H](N)CCCN)oc2cc1C.O=C(O)C(F)(F)F.O=C(O)C(F)(F)F (some centres undefined) | 128 | 1.25 |
| CC(C)CCN(CCC(=O)Nc1cnc2ccccc2c1)C(=O)[C@H](N)CCCN.O=C(O)C(F)(F)F.O=C(O)C(F)(F)F | > 512 | 10 |
| NCCC[C@@H](N)C(=O)N[C@H](CCc1ccccc1)c1nc(C(=O)Nc2ccc3ccccc3c2)co1.O=C(O)C(F)(F)F.O=C(O)C(F)(F)F | 16 | 2.5 |
| Cc1cc2nc(C(O)[C@@H](CCc3ccccc3)NC(=O)[C@H](N)CCCN)oc2cc1C.O=C(O)C(F)(F)F.O=C(O)C(F)(F)F (some centres undefined) | 128 | 2.5 |
| COc1ccc(CCN(CCC(=O)Nc2cnc3ccccc3c2)C(=O)[C@H](N)CCCN)cc1.O=C(O)C(F)(F)F.O=C(O)C(F)(F)F | 512 | 10 |

Second part, led by results:

| MIC (Pseudomonas aeruginosa [1]) [µg/mL] | SMILES | MPC8 (Pseudomonas aeruginosa [2]) [µg/mL] |
| --- | --- | --- |
| > 512 | NCCC[C@@H](N)C(=O)N[C@H](CCc1ccccc1)C(O)c1nc2ccccc2[nH]1.O=C(O)C(F)(F)F.O=C(O)C(F)(F)F (some centres undefined) | 20 |
| 128 | NCCC[C@@H](N)C(O)CN[C@H](CCc1ccccc1)C(=O)Nc1cnc2ccccc2c1.O=C(O)C(F)(F)F.O=C(O)C(F)(F)F (some centres undefined) | 2.5 |
| 64 | NCCC[C@@H](N)C(O)CN[C@H](CCc1ccccc1)c1nc(C(=O)Nc2cnc3ccccc3c2)co1.O=C(O)C(F)(F)F.O=C(O)C(F)(F)F (some centres undefined) | 5 |
| > 512 | NCCC[C@@H](N)C(=O)N[C@H](CCc1ccccc1)C(O)c1nc2ccccc2o1.O=C(O)C(F)(F)F.O=C(O)C(F)(F)F (some centres undefined) | 10 |
| 128 | NCCC[C@@H](N)C(=O)N[C@H](CCc1ccccc1)c1nc(C(=O)Nc2cnc3ccccc3c2)co1.O=C(O)C(F)(F)F.O=C(O)C(F)(F)F | 5 |
| > 512 | NCCC[C@@H](N)C(=O)N(CCC(=O)Nc1cnc2ccccc2c1)CCc1ccccc1.O=C(O)C(F)(F)F.O=C(O)C(F)(F)F | 10 |
| > 512 | NCCC[C@@H](N)C(=O)N[C@H](CCc1ccccc1)C(=O)Nc1cnc2ccccc2c1 | 10 |
| 512 | NCCC[C@@H](N)C(=O)N[C@H](CCc1ccccc1)C(O)c1nc2ccccc2s1.O=C(O)C(F)(F)F.O=C(O)C(F)(F)F (some centres undefined) | 20 |
